The subject of one data set is NCTC929 fibroblasts. The experiment in a line: Nonspecific cytotoxicity on fibroblasts, resazurin. In kind it is cell-based. The conditions noted are these: NCTC-929, 24 h; read-out: IC50 ± SD Fibroblast NCTC929. Put shortly: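 NCTC929 murine fibroblasts seeded 3.00 × 10^4 cells/well, grown overnight, then exposed to compounds for 24 h at 37 °C, 5% CO2. Viability read by resazurin reduction (3 h), dual-wavelength absorbance at 490 and 595 nm with background subtracted. Each concentration tested three times.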

Data set [1] addresses T1, LmTIM (triosephosphate isomerase from Leishmania mexicana) (Leishmania mexicana, UniProt P48499).
T1 construct: made in house; host or cells: Escherichia coli
The experiment in a line: Inhibition of triosephosphate isomerase. In kind it is biochemical. The conditions noted are these: read-out: Percentage of Inhibition LmTIM. As for the experimental part: Compounds were dissolved in DMSO. […] The experiments were performed in triplicate.

Another data set addresses cruzipain (Trypanosoma cruzi, UniProt P25779). The experiment in a line: Inhibition of T. cruzi cruzipain. In kind it is biochemical. The note with it: at 100 µM; read-out: Percentage of Inhibition Cruzipain. As for the experimental part: Cruzipain was purified to homogeneity from epimastigotes of the Tulahuen 2 strain by ConA–Sepharose affinity chromatography, as previously described. Cruzipain (2.5 μM ε = 58,285 M^−1cm^−1) was incubated in 50 mM acetate buffer pH 5.5 with 5 mM DTT, and 100 μM inhibitor were added, shaking the solution for 15 min at 27 °C. The derivatives were added as solutions in DMSO, and the controls contained the same solvent concentration. The concentration of DMSO never exceeded 1% in the reaction medium. L-leucylam-ido(4-guanidino)butane (E-64) was used as a positive control of inhibition. Then, the fluorogenic substrate Z-Phe-Arg 7-amido-4-methylcoumarin hydrochloride (Z-Phe-Arg-AMC) at 10 μM was added, and the fluorescence was measured during 10 min at intervals of 3 s (excitation at 380 nm and emission at 460 nm) using a Varioskan Flash Spectrophotometer. From the slope of the negative control, we calculated the total (100%) enzyme activity, while the slopes obtained in the presence of the compounds yielded the percentage of remaining enzyme activity. The percentage of enzyme inhibition was determined as […]. The experiments were done in duplicate.

Data set [2] in a line: Drug bioconcentration in zebrafish embryos, UV-visible spectroscopy. Format: in vivo. The note with it: whole embryo extract, 25 µM, incubation 25 µM, volume of measurement 100 µL, read-out: conc. in zebrafish embryos. As for the experimental part: To get an approximation of the distribution and concentration of GAT1033 (the lipophilic compound) in the embryos, in the presence and absence of the chorion, we conducted a first analysis visualizing the embryos by laser scanning confocal microscopy. […] We then quantified the internal concentration of GAT1033 by UV-visible spectroscopy (Figure 9). To do this, we incubated embryos, with and without chorion, with a fixed dose of the compound for different extensions of time. After this, we performed a standard chemical extraction and quantified using spectrophotometry and checking the integrity of the molecules by thin layer chromatography.
Following the same conditions as those of the embryo toxicity test, five embryos were incubated per well in 6-well plates with 5 mL of 25 μM GAT1033. Embryos were incubated with and without chorion, starting at 6 hpf. The incubation medium containing the compound was exchanged daily. Every 24 h, 30 embryos having the same conditions were taken to extract the compound for quantitation. The embryos were washed three times with aquarium water and then centrifuged at low speed to pull out the total remaining solvent. The embryos were then resuspended in 1 mL of aquarium water and lysed by sonication (Omni Sonic Ruptor Omni Sonic Ruptor 400 Ultrasonic Homogenizer) on an ice bath with 4-times half-intensity-15-second pulses, resting 5 seconds. The extract was incubated with 1 mL of methanol/chloroform (2:1) for 5 min at 25 °C, followed by five chloroform extractions. The organic phase was dried over anhydrous sodium sulfate and evaporated in vacuo. The crude extract was dissolved in 100 µL acetonitrile (Merck, HPLC grade) for spectrophotometric measurements (Spectrophotometer double beam UV-Vis model Cary 60 Agilent Cary WinUV). The calibration curve and all of the experiments were performed with GAT1033 under the same conditions. For this, we used the Beer–Lambert–Bouguer Law (BLB law). Optical data for GAT1033 are: ε = (14.7 ± 0.5) cm^−1mM^−1, λmax = 379 nm, emission 530 nm.

Data set [3] relates to T. cruzi epimastigotes, Tulahuen 2 strain (genotype TcVI). The conditions noted are these: cited from earlier work.
Data set [4] deals with J774.1 murine macrophages. The note with it: J774.1; read-out: IC50 ± SD Murine Macrophages; cited from earlier work.

Like-named read-outs stand apart in the source and are kept apart here. Marks after values point to notes of the source that are not given here.

Sequence of cruzipain (P25779 123-467): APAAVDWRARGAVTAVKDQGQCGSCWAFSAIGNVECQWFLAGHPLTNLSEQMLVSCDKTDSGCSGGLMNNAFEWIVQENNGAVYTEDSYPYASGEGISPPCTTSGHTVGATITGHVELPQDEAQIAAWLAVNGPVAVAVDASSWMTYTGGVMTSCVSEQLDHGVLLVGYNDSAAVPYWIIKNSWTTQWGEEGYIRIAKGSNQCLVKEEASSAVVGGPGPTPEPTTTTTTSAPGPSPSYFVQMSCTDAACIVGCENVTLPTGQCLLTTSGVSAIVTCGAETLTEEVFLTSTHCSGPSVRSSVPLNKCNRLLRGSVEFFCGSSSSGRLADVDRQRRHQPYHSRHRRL
T1 sequence (P48499 whole entry): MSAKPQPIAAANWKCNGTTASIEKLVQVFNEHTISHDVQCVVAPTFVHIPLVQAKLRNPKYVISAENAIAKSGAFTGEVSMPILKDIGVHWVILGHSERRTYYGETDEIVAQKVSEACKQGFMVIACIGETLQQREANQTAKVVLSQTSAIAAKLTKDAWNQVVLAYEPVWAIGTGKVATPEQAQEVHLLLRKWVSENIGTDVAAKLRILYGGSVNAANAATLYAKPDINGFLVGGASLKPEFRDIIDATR

As a reminder, the IC50 is the concentration needed to halve the response being measured. A word on the inhibition: it is the change of the read-out against control, counted positive when it falls. Regarding `C=CCn1c(-c2ccc(Cl)cc2)cs\c1=N/N=C/C=C/c1ccco1` [GAT1033], the IC50 in the data set on NCTC929 fibroblasts was 405 ± 10 µM; in data set [3] (read-out: IC50 ± SD Epimastigotes T. cruzi), 1.6 ± 0.5 µM; in data set [4], 60 ± 6 µM. Moreover, the inhibition at 100 µM (in data set [1]; at cruzipain) was 0% each time. The concentration at 24 h in data set [2] (with chorion) was 0.3 µM; in data set [2] (without chorion) it was 0.4 µM. Moreover, the concentration at 48 h stood at 4.8 µM in data set [2] (with chorion) and 7.3 µM in data set [2] (without chorion). Moreover, the values for the concentration at 72 h in data set [2] (with chorion) and in data set [2] (without chorion) were 1.8 µM and 8.1 µM, respectively. Further, in data set [3] (ratio IC50 mammalian cell / IC50 parasite (epimastigotes)), the “SI J774.1/ T. cruzi” value is recorded as 37 ^a.

The values are drawn from publication PMC6154605, “Multi-Anti-Parasitic Activity of Arylidene Ketones and Thiazolidene Hydrazines against Trypanosoma cruzi and Leishmania spp” (Molecules : A Journal of Synthetic Chemistry and Natural …, 2017).
